Results published in PubChem BioAssay AID1963851 (Molecular Pharmacology Branch, DTP, NCI, 2024).

Tested on: 188146-221-R-J1-PDC complex spheroid viability
Assay: Anticancer human tumor 188146-221-R-J1-PDC patient-derived colon adenocarcinoma cell line growth inhibition [POLQ]
Details: for IC50: curve of first compound; for viability, T/C: stronger effect = lower value; active = viability on the fitted dose curve at most 10% of control; inactive = the rest
Protocol: Multicellular complex tumor spheroid response to Polymerase (POL) inhibitors (novobiocin, ART-558, RP6685) in combination with a variety of drugs and investigational agents in selected tumor cell lines
The POL inhibitors (novobiocin, ART-558, and RP6685) were evaluated both individually and in combination with standard of care and investigational anticancer small molecules within a complex spheroid model of solid tumors. . Complex spheroids include a stromal component modeled by human endothelial cells (HUVEC) and fibroblasts modeled by human mesenchymal stem cells (MSCs). The concentration ranges selected for each drug and investigational agent were based upon clinically achievable concentrations if the clinical Cmax of the agent was known.
Compounds. The drugs and investigational agents: novobiocin (NSC847541), ART-558 (NSC835418), RP-6685 (NSC848927), peposertib (NSC802822), ceralasertib (NSC780249), elimusertib (NSC800525), camonsertib (NSC841442), AZD-1390 (NSC803789), olaparib (NSC753686), talazoparib (NSC767125), rucaparib (NSC756644), sotorasib (NSC818433), MRTX-1133 (NSC836407), SN-38 (NSC673596), topotecan (NSC609699), epotoside (NSC141540), doxorubicin (NSC123127), gemcitabine (NSC613327), 5-fluorouracil (NSC19893), paclitaxel (NSC125973), vemurafenib (NSC761431), MSA-2 (NSC828583), SN-011 (NSC837082), adavosertib (NSC754352), prexasertib (NSC758257), carboplatin (NSC241240) and oxaliplatin (NSC266046), were obtained from the National Cancer Institute (NCI) Developmental Therapeutics Program Chemical Repository (21). The FDA-approved anticancer drug set is available from the Developmental Therapeutics Program at https://dtp.cancer.gov/organization/dscb/obtaining/. […] The stock solutions were prepared in dimethyl sulfoxide (DMSO, Sigma-Aldrich, St. Louis, MO, cat. D2650), except for the platinum compounds which were prepared in saline (Quality Biological, Gaithersburg, MD, cat. 114-055-101), at 800-fold the tested concentration and stored at -70 degrees C prior to their use. All drugs and investigational agents were tested over a range starting from a high concentration at or near the clinical Cmax and decreasing in half-log increments. If the clinical Cmax for an agent had not been determined, the highest concentration tested was 10 microM, except for SN-38, which was tested at a high concentration of 1 microM.
Cell Culture. All cells were maintained in an incubator at 37 degrees C and 5% CO2 with 95% humidity. The PDC lines were cultured according to standard operating procedures established by the NCI PDMR (https://pdmr.cancer.gov). Table 3 of the manuscript, lists the cell lines along with the number of the three cell types plated to form the mct-spheroids and media for tumor cell growth. After thawing, all PDC lines, except 997537-175-T-J1-PDC and 415267-285-R-J2-PDC, were cultured in Matrigel-coated flasks prepared with a working solution of 1X Ham's F-12 nutrient mix, without supplementation (Thermo Fisher Scientific, cat. 11765054), 100 U/mL penicillin-streptomycin (Thermo Fisher Scientific, cat. 15140122), and 2.5% Matrigel (Corning Inc., Corning, NY, cat. 354248) for the first three passages. The two PDC lines 997537-175-T-J1-PDC and 415267-285-R-J2-PDC were cultured on uncoated flasks. The 857933-349-R-J2-PDC line was cultured in 6C/Colon 1B media containing advanced DMEM/F-12 (Thermo Fisher Scientific, cat. 12634028), 10 mM HEPES (Thermo Fisher Scientific, cat. 15630080), 1X GlutaMAX supplement (Thermo Fisher Scientific, cat. 35050061), 0.1 mg/mL primocin (InvivoGen, San Diego, CA, cat. ant-pm-2), 10% defined fetal bovine serum, heat inactivated (HyClone Laboratories Inc., Logan, UT, cat. SH30070.03HI), 50% L-WRN conditioned media (ATCC, cat. CRL-3276), 1.25 mM N-Acetyl-L-cysteine (Sigma-Aldrich, cat. A9165), 10 mM nicotinamide (Sigma-Aldrich, cat. N0636), 1X B-27 supplement (Thermo Fisher Scientific, cat. 17504044), 1X N-2 supplement (Thermo Fisher Scientific, cat. […]
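Note: spheroids exposed to compounds for seven days.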

COc1cccc2c1C(=O)c1c(O)c3c(c(O)c1C2=O)CC(O)(C(=O)CO)CC3OC1CC(N)C(O)C(C)O1 (configuration not stated) + Nc1ccc(C#CCN(C(=O)Cc2ncc(C(F)(F)F)cc2C(F)(F)F)c2ccc(F)cc2)nn1
57.4 nM: IC50 (second compound 3.16 µM)
62.1 nM: IC50 (second compound 10 µM)
103 nM: IC50 (second compound 0.1 µM)
inactive: viability, T/C (second compound 0.0316 µM, first compound 0.0316 µM) 67.5% | viability, T/C (second compound 0.0316 µM, first compound 0.1 µM) 57.8% | viability, T/C (second compound 0.0316 µM, first compound 0.316 µM) 26.7% | viability, T/C (second compound 0.1 µM, first compound 0.0316 µM) 80.5% | viability, T/C (second compound 0.1 µM, first compound 0.1 µM) 48.3% | viability, T/C (second compound 0.1 µM, first compound 0.316 µM) 29.4% | viability, T/C (second compound 0.316 µM, first compound 0.0316 µM) 67.8% | viability, T/C (second compound 0.316 µM, first compound 0.1 µM) 40% | viability, T/C (second compound 0.316 µM, first compound 0.316 µM) 25% | viability, T/C (second compound 0.316 µM, first compound 1 µM) 9.55% | viability, T/C (second compound 1 µM, first compound 0.0316 µM) 83.7% | viability, T/C (second compound 1 µM, first compound 0.1 µM) 36.7% | viability, T/C (second compound 1 µM, first compound 0.316 µM) 29.5% | viability, T/C (second compound 3.16 µM, first compound 0.0316 µM) 64.5% | viability, T/C (second compound 3.16 µM, first compound 0.1 µM) 34.2% | viability, T/C (second compound 3.16 µM, first compound 0.316 µM) 24.8% | viability, T/C (second compound 10 µM, first compound 0.0316 µM) 63.2% | viability, T/C (second compound 10 µM, first compound 0.1 µM) 38.7% | viability, T/C (second compound 10 µM, first compound 0.316 µM) 25.3%
134 nM: IC50 (second compound 0.0316 µM)
68.8 nM: IC50 (second compound 0.316 µM)
80.6 nM: IC50 (second compound 1 µM)
active: viability, T/C (second compound 0.0316 µM, first compound 1 µM) 5.37% | viability, T/C (second compound 0.0316 µM, first compound 3.16 µM) 0.23% | viability, T/C (second compound 0.0316 µM, first compound 10 µM) 0.7% | viability, T/C (second compound 0.1 µM, first compound 1 µM) 5.02% | viability, T/C (second compound 0.1 µM, first compound 3.16 µM) 0.21% | viability, T/C (second compound 0.1 µM, first compound 10 µM) 0.47% | viability, T/C (second compound 0.316 µM, first compound 3.16 µM) 0.15% | viability, T/C (second compound 0.316 µM, first compound 10 µM) 0.48% | viability, T/C (second compound 1 µM, first compound 1 µM) 5.88% | viability, T/C (second compound 1 µM, first compound 3.16 µM) 0.44% | viability, T/C (second compound 1 µM, first compound 10 µM) 0.58% | viability, T/C (second compound 3.16 µM, first compound 1 µM) 7.19% | viability, T/C (second compound 3.16 µM, first compound 3.16 µM) 0.42% | viability, T/C (second compound 3.16 µM, first compound 10 µM) 0.9% | viability, T/C (second compound 10 µM, first compound 1 µM) 5.04% | viability, T/C (second compound 10 µM, first compound 3.16 µM) 0.39% | viability, T/C (second compound 10 µM, first compound 10 µM) 1.33%
